Here are results for 7 molecules from PubChem BioAssay (NCI).

Test systems include PC-3 prostate; U251 CNS; SNB-19 CNS; NCI-H522 lung; NCI/ADR-RES ovarian; SK-MEL-5 melanoma; RXF 393 renal; NCI-H23 lung; SN12C renal; HOP-92 NSCLC; MOLT-4 leukemia; NCI-H226 lung; OVCAR-5 ovarian; RPMI-8226 leukemia; HCT-116 colon; OVCAR-3 ovarian; SK-MEL-28 melanoma; T-47D breast.
Holding throughout (assay): growth of human tumour cells (NCI), 48 h

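Briefly, cells in 96-well plates were exposed to five compound concentrations for 48 h, and endpoints were estimated by linear interpolation. Definition used: TGI = concentration required for complete inhibition of growth.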 Where only a bound is given, the exact number is not on record here.

With `COC(=O)C1=C(C)NC(C)=C(C(=O)OC)C1c1ccc(/[N+]([O-])=C/c2ccccc2)cc1`, the TGI in the test on PC-3 prostate was greater than 100 µM; with U251 CNS, greater than 100 µM; in the test on SNB-19 CNS, greater than 100 µM; in the test with NCI-H522 lung, 27.9 µM; with NCI/ADR-RES ovarian it was greater than 100 µM; in the test with SK-MEL-5 melanoma, greater than 100 µM. For the same molecule, the TGI in the test with RXF 393 renal is 41.1 µM; in the test on NCI-H23 lung, greater than 100 µM; in the test with SN12C renal, greater than 100 µM; with HOP-92 NSCLC, 35.3 µM; with MOLT-4 leukemia it was 71.5 µM; in the test with NCI-H226 lung it was greater than 100 µM. In addition, the TGI is greater than 100 µM in the test on OVCAR-5 ovarian; greater than 100 µM in the test with RPMI-8226 leukemia; 30 µM with HCT-116 colon; 34.4 µM in the test on OVCAR-3 ovarian; 36.8 µM in the test on SK-MEL-28 melanoma; 40.6 µM in the test with T-47D breast.

As to `CC1(C)OCC2OC3(c4nc(C#N)c(N)o4)OC(C)(C)OC3C2O1` (stereo unspecified), the TGI in the test on PC-3 prostate, in the test with U251 CNS, in the test on SNB-19 CNS, in the test with NCI-H522 lung, with NCI/ADR-RES ovarian and with SK-MEL-5 melanoma was greater than 100 µM each time. The TGI in the test on RXF 393 renal, with NCI-H23 lung, with SN12C renal, in the test on HOP-92 NSCLC, in the test on MOLT-4 leukemia and in the test on NCI-H226 lung was greater than 100 µM throughout. For the same molecule, the TGI in the test with OVCAR-5 ovarian, in the test with RPMI-8226 leukemia, in the test on HCT-116 colon, in the test with OVCAR-3 ovarian, with SK-MEL-28 melanoma and in the test on T-47D breast was greater than 100 µM throughout.

As for `O=C(O)c1nc(-c2ccccn2)c(-c2ccccn2)nc1C(=O)O`, the TGI in the test with PC-3 prostate was 20.9 µM; with U251 CNS, 13.3 µM; with SNB-19 CNS, 19.1 µM; in the test with NCI-H522 lung, 23.2 µM; with NCI/ADR-RES ovarian it was greater than 23.1 µM; in the test with SK-MEL-5 melanoma, 8.53 µM. For the same molecule, the TGI in the test with RXF 393 renal is 9.71 µM; in the test on NCI-H23 lung it was 23.6 µM; in the test on SN12C renal, 24.6 µM; in the test on HOP-92 NSCLC, 26.9 µM; in the test on MOLT-4 leukemia it was greater than 28.3 µM; with NCI-H226 lung it was 4.7 µM. The TGI with OVCAR-5 ovarian was 18.3 µM; in the test on RPMI-8226 leukemia, greater than 100 µM; in the test on HCT-116 colon it was 5.6 µM; in the test with OVCAR-3 ovarian, 12.4 µM; with SK-MEL-28 melanoma, 11.1 µM; in the test with T-47D breast it was 24.1 µM.

As for `Cc1ccc(S(=O)(=O)C2=Cc3ccc(C(F)(F)F)cc3C2(O)c2cccc(C(F)(F)F)c2)cc1` (stereo unspecified), the TGI amounted to 8.03 µM in the test on PC-3 prostate; 3.6 µM in the test with U251 CNS; 16.8 µM in the test with SNB-19 CNS; 3.84 µM in the test with NCI-H522 lung; 8.51 µM in the test with NCI/ADR-RES ovarian; 3.35 µM with SK-MEL-5 melanoma. In addition, the TGI in the test with RXF 393 renal is 6.26 µM; in the test on NCI-H23 lung, 6.26 µM; in the test with SN12C renal, 4.47 µM; with HOP-92 NSCLC, 4.17 µM; in the test on MOLT-4 leukemia it was greater than 22.6 µM; in the test on NCI-H226 lung it was 4.26 µM. Further, the TGI with OVCAR-5 ovarian was 5.07 µM; in the test with RPMI-8226 leukemia, greater than 23 µM; in the test on HCT-116 colon, 3.03 µM; with OVCAR-3 ovarian it was 3.01 µM; with SK-MEL-28 melanoma, 3.75 µM; in the test on T-47D breast it was 11 µM.

For the molecule `C/C(=N\Nc1cc(CN2CCCC2)c(-c2ccc(Cl)cc2)nn1)C(=O)O`, the TGI with PC-3 prostate, with U251 CNS, in the test with SNB-19 CNS, in the test on NCI-H522 lung, in the test on NCI/ADR-RES ovarian and in the test on SK-MEL-5 melanoma was greater than 100 µM each time. The TGI with RXF 393 renal, in the test with NCI-H23 lung, in the test on SN12C renal, in the test on HOP-92 NSCLC, with MOLT-4 leukemia and in the test on NCI-H226 lung was greater than 100 µM throughout. In addition, the TGI with OVCAR-5 ovarian, in the test on RPMI-8226 leukemia, with HCT-116 colon, with OVCAR-3 ovarian, in the test on SK-MEL-28 melanoma and with T-47D breast was greater than 100 µM throughout.

As for `c1cc(-c2ncc(-c3ccc4c(c3)CCCO4)o2)ccn1`, the TGI with PC-3 prostate is 46.5 µM; with U251 CNS, 66.5 µM; in the test on SNB-19 CNS, greater than 100 µM; in the test with NCI-H522 lung, 16.7 µM; with NCI/ADR-RES ovarian it was 23.1 µM; in the test with SK-MEL-5 melanoma, 21.2 µM. Also, the TGI in the test with RXF 393 renal is greater than 100 µM; in the test on NCI-H23 lung it was 52.2 µM; in the test with SN12C renal it was greater than 100 µM; in the test on HOP-92 NSCLC, 92.5 µM; in the test on MOLT-4 leukemia it was 17.3 µM; in the test with NCI-H226 lung, greater than 100 µM. The TGI with OVCAR-5 ovarian was greater than 100 µM; with RPMI-8226 leukemia it was 30.4 µM; in the test with HCT-116 colon, 39.3 µM; in the test on OVCAR-3 ovarian, 29.9 µM; in the test with SK-MEL-28 melanoma, greater than 100 µM; in the test on T-47D breast, 63.7 µM.

Regarding `COc1cccc(OC)c1/C=C1\OC(=O)c2cccc(OC)c21`, the TGI with PC-3 prostate is greater than 100 µM; in the test with U251 CNS, greater than 100 µM; in the test with SNB-19 CNS, greater than 100 µM; with NCI-H522 lung it was 12.2 µM; in the test with NCI/ADR-RES ovarian, greater than 100 µM; in the test with SK-MEL-5 melanoma, greater than 100 µM. For the same molecule, the TGI in the test on RXF 393 renal is 65 µM; in the test on NCI-H23 lung, greater than 100 µM; in the test on SN12C renal, greater than 100 µM; in the test with HOP-92 NSCLC, greater than 63 µM; in the test with MOLT-4 leukemia, greater than 100 µM; with NCI-H226 lung, greater than 29.5 µM. Besides, the TGI is greater than 100 µM with OVCAR-5 ovarian; greater than 100 µM with RPMI-8226 leukemia; greater than 100 µM in the test on HCT-116 colon; 13.5 µM in the test with OVCAR-3 ovarian; greater than 100 µM in the test on SK-MEL-28 melanoma; greater than 100 µM in the test with T-47D breast.
